In patent publication US20160136197A1, “Pharmaceutical Compositions Comprising a GPG Oligodeoxynucleotide and Cyclic Di-GMP” (INTERVET INTERNATIONAL B.V., priority 2013, published 2016):

What was measured:
[1] = system: Mouse bone marrow dendritic cells; assay: IL12 production by bone marrow dendritic cells, ELISA; format: cell-based; details: overnight incubation of 1.2×10^5 DCs; CpG 1 μg/ml, c-GMP 10 μg/ml, c-di-GMP 10 μg/ml
Procedure: (§1) Mouse bone marrow dendritic cells were cultured with granulocyte-macrophage colony-stimulating factor (GM-CSF) and harvested at day 7 of culture. 1.2×10^5 cells were exposed during overnight incubation to the following immunopotentiators: CpG 1668 1 μg/ml, c-GMP 10 μg/ml, c-di-GMP 10 μg/ml. Next, supernatant was carefully harvested and IL12 or type-I IFN production was determined. For IL12 an ELISA method was used according to the manufacturer's instructions (BD Biosciences). Type-I IFN was determined by a standard bioassay using L929 ISRE reporter cells.
(§2) Kaplan Meier survival curves were analyzed using a log rank test. Cytokine data was analyzed using ANOVA with a post-hoc Bonferroni test.
FIG. 3. Synergistic IL12 production by DCs upon combined treatment with c-di-GMP and CpG. Mouse bone marrow dendritic cells were cultured with GM-CSF and harvested at day 7 of culture. 1.2×10^5 cells were exposed during overnight incubation to the indicated immunopotentiators: CpG 1 μg/ml, c-GMP 10 μg/ml, c-di-GMP 10 μg/ml. Next, supernatant was harvested and IL12 production was determined by standard ELISA methods. Results are shown as means with sem, *=p<0.001. Similar results were obtained in three independent experiments.

B16F10 melanoma cells = assay: Cryo ablation of established B16F10 tumors plus peri-tumoral immunopotentiator, re-challenge after 40 days, Kaplan-Meier survival; format: in vivo, C57BL/6n mice; details: cryo ablation combined with immunopotentiator; for survival rate after 60 days: 30 μg p.t. within 30 min. after ablation, re-challenge with 15*10^3 B16F10 cells s.c. 40 days after ablation; for protection from tumor outgrowth (re-challenge, Kaplan-Meier): re-challenge 40 days later, result in words
Procedure: C57BL/6n mice (6-8 weeks old) were purchased from Charles River Wiga (Sulzfeld, Germany) and maintained under specific pathogen-free barrier conditions at the Central Animal Laboratory (Nijmegen, The Netherlands). Drinking water and standard laboratory food pellets were provided ad libitum and mice were allowed to settle for at least 1 week before random assignment into specific treatment groups. The experiments were performed according to the guidelines for animal care of the Nijmegen Animal Experiments Committee.
The murine melanoma cell line B16F10 (ATCC) was cultured in complete medium (MEM, 5% fetal bovine serum (Greiner Bio-one), 100 U/ml penicillin G sodium and 100 μg/ml streptomycin (Pen/Strep), MEM sodium pyruvate (1 mM), NaHCO3, MEM vitamins, MEM non-essential amino acids (all from Gibco), 20 μM β-mercaptoethanol (β-ME)).
B16F10 melanoma cells were suspended in a mixture of PBS and Matrigel (2:1), and 0.5*10^6 cells in a total volume of 50 μl were injected s.c. at the right femur. When tumor diameters measured between 6-8 mm (generally at day 9-10) they were randomly assigned to treatment groups. Cryo ablation (Cryo) was performed under isoflurane/O2/N2O anesthesia using a liquid nitrogen cryo ablation system (CS76, Frigitronics, Shelton, Conn.) of which the tip is cooled by a continuous flow of circulating liquid nitrogen. During 2 treatment cycles of freezing and thawing the tumor was macroscopically frozen, while leaving surrounding healthy tissue intact. To monitor the induction of long-lasting tumor protection, mice were re-challenged with 15*10^3 B16F10 cells 40 days after cryo ablation. Re-challenges were injected in 100 μl PBS s.c. on the right flank. Mice were sacrificed when tumor volume exceeded 1000 mm^3 or when tumors brake through the skin barrier.
CpG 1668 (‘5-[…]-3’) with total phosphorothioate-modified backbone was purchased from Sigma Genosys (Haverhill, UK). C-di-GMP was synthesized as described by Spehr V, Warrass R, Höcherl K, Ilg T., in Appl. Biochem. Biotechnol. 2011 Oct;165(3-4):761-75. CpG and/or C-di-GMP were peri-tumorally injected in PBS (p.t., 30 μg divided over 2 injections of 20 μl lining the ablated tumor). All injections were done within 30 min. after ablation.
as §2
FIG. 1. Anti-tumor memory response following ablation combined with C-di-GMP and CpG. Established B16F10 tumors growing subcutaneously on the right femur were treated with cryo ablation alone, or combined with the indicated immunopotentiators Immunopotentiators ([…]) were injected in 40 μl PBS in the peri-tumoral area following the ablation. […]

[2] = system: Mouse bone marrow dendritic cells; assay: Type-I IFN production by bone marrow dendritic cells, bioassay using L929 ISRE reporter cells; format: cell-based; details: overnight incubation of 1.2×10^5 DCs; CpG 1 μg/ml, c-GMP 10 μg/ml, c-di-GMP 10 μg/ml
Procedure: as §1, §2
FIG. 2. Synergistic type I IFN production by DCs upon combined treatment with c-di-GMP and CpG. Mouse bone marrow dendritic cells were cultured with GM-CSF and harvested at day 7 of culture. 1.2×10^5 cells were exposed during overnight incubation to the indicated immmunopotentiators or combinations of immunopotentiators: CpG 1 μg/ml, c-GMP 10 μg/ml, c-di-GMP 10 μg/ml. Next, supernatant was harvested and type I IFN production was determined by a standard bioassay using L929 ISRE cells. Results are shown as means with sem, *=p<0.001 vs. all other bars. Similar results were obtained in three independent experiments.

human colon cancer cell = details: in vitro; cited from earlier work

| Compound | IL12 production (in words) [1] | survival rate after 60 days (B16F10 melanoma cells) | protection from tumor outgrowth (re-challenge, Kaplan-Meier) (B16F10 melanoma cells) | type I IFN production (in words) [2] | effect on basal and GF-stimulated cancer cell proliferation (human colon cancer cell) | type I IFN production [2] [U/ml] |
| --- | --- | --- | --- | --- | --- | --- |
| 5-TCCATGACGTTCCTGATGCT-3 (DNA, all phosphorothioate, methylation of C not given here) [CpG 1668, CpG ODN 20-mer, TLR9 agonist, purchased from Sigma Genosys] | modest level of IL12 production | approx. 50% | increased protection from tumor outgrowth | no IFN or only modest amounts of IFN | – | – |
| Nc1nc2c(ncn2[C@@H]2O[C@@H]3COP(=O)(O)O[C@H]3[C@H]2O)c(=O)[nH]1 [c-GMP] | do not produce IL12 | – | – | no IFN or only modest amounts of IFN | – | – |
| Nc1nc2c(ncn2C2OC3COP(=O)(O)OC4C(COP(=O)(O)OC3C2O)OC(n2cnc3c(=O)[nH]c(N)nc32)C4O)c(=O)[nH]1 (centres unmarked) [c-di-GMP, 3′,5′-cyclic diguanylic acid] | do not produce IL12 | approx. 50% | increased protection from tumor outgrowth | – | inhibitory effect | < 50 |
